Source: patent publication US8445503B2, “Inhibitors of polo-like kinase” (Elan Pharmaceuticals, Inc., priority 2009, dated 2013)

Assays:
Type in all cases: biochemical
GST-PLK1 = GST-PLK1 (Homo sapiens, UniProt P53350); assay: PLK TR-FRET peptide assay, PLK1; conditions: read-out: Plk1 IC50
GST-PLK2 = molecular target: T1, GST-PLK2 (Homo sapiens, UniProt Q9NYY3); assay: PLK TR-FRET peptide assay, PLK2; conditions: for IC50: PLK TR-FRET peptide assay, GST-PLK2, read-out: Plk2 IC50; for PLK2 activity relative to the opposite enantiomer / other isomer: comparison of resolved enantiomers, used to assign absolute configuration
T1 construct: purchased CarnaBio
T1 sequence (Q9NYY3 whole entry): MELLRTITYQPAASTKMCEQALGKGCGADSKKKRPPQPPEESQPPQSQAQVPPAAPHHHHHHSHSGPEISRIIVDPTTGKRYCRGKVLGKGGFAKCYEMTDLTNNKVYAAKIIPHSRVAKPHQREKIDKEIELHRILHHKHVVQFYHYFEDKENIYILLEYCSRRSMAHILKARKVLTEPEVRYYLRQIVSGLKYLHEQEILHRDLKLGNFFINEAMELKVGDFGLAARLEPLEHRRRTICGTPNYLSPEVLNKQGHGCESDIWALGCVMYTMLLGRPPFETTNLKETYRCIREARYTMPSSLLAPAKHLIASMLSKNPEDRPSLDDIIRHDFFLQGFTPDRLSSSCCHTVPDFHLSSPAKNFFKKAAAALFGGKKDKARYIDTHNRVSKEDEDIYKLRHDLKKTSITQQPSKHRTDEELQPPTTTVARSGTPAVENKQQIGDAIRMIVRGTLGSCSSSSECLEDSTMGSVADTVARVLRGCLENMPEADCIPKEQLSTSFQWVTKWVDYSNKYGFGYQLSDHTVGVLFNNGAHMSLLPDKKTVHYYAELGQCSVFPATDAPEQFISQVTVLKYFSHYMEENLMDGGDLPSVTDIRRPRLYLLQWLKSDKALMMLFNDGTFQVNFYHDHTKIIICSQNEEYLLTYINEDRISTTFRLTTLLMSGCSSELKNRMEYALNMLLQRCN

GST-PLK3 = molecular target: T2, GST-PLK3 (Homo sapiens, UniProt Q9H4B4); assay: PLK TR-FRET peptide assay, PLK3; conditions: PLK TR-FRET peptide assay, GST-PLK3; read-out: Plk3 IC50
T2 construct: purchased CarnaBio
T2 sequence (Q9H4B4 whole entry): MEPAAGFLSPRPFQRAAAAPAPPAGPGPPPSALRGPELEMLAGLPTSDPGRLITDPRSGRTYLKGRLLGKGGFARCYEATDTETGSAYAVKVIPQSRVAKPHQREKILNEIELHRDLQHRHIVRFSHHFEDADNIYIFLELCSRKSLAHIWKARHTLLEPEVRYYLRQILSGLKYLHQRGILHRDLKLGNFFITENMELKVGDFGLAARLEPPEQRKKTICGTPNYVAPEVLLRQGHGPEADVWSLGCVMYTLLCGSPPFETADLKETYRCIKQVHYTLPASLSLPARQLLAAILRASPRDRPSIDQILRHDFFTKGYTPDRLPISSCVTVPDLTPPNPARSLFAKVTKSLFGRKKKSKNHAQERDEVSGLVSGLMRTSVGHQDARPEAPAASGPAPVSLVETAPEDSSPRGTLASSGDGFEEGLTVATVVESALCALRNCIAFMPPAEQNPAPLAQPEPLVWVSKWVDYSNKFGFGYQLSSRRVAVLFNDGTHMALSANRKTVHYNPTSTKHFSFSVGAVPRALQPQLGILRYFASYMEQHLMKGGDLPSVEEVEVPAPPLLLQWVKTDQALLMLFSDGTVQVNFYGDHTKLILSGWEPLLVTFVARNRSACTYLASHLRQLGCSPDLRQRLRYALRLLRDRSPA

Chain of GST-PLK1 (P53350 whole entry): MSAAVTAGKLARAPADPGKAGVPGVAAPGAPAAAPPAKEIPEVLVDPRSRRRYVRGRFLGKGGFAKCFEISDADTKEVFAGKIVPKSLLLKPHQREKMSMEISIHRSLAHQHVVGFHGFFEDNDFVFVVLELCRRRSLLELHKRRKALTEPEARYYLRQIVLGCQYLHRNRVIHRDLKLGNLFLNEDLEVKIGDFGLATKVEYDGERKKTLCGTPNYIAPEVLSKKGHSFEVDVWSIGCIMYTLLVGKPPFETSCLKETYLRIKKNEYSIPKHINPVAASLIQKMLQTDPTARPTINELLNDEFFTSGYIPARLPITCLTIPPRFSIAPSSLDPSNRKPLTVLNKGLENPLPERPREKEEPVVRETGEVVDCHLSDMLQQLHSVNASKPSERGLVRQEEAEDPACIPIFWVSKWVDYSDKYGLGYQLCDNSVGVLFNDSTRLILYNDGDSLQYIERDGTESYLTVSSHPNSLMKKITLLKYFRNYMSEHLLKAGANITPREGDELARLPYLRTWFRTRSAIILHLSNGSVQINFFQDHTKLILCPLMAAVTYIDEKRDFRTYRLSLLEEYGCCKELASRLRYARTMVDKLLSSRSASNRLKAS

Structure (SMILES): CC[C@]12COCCN1c1nc(-n3ccnc3-c3ccc(F)cc3F)ncc1N(C)C2=O [Example 377, (R)-2-(2-(2,4-difluorophenyl)-1H-imidazol-1-yl)-6a-ethyl-5-methyl-6a,7,9,10-tetrahydro-[1,4]oxazino[3,4-h]pteridin-6(5H)-one]
- IC50 (GST-PLK1): > 50 µM
- IC50 (GST-PLK2): 10 to 50 µM
- IC50 (GST-PLK3): > 50 µM

Structure (SMILES): CC[C@H]1C(=O)N(C)c2cnc(-n3ccnc3-c3ccccc3)nc2N1c1cnn(C)c1 [Example 410, (S)-7-ethyl-5-methyl-8-(1-methyl-1-pyrazol-4-yl)-2-(2-phenyl-1H-imidazol-1-yl)-7,8-dihydropteridin-6(5H)-one]
- IC50 (GST-PLK1): > 50 µM
- IC50 (GST-PLK2): > 50 µM
- IC50 (GST-PLK3): > 50 µM

Structure (SMILES): CC[C@@H]1C(=O)N(C)c2cnc(-c3ccncc3)nc2N1C1CCCC1 [Example 5, (R)-8-cyclopentyl-7-ethyl-5-methyl-2-(pyridin-4-yl)-7,8-dihydropteridin-6(5H)-one]
- IC50 (GST-PLK1): < 1 µM
- IC50 (GST-PLK2): < 1 µM
- IC50 (GST-PLK3): 10 to 50 µM

Structure (SMILES): CC[C@@H]1C(=O)N(C)c2cnc(-n3ccnc3)nc2N1C1CCCC1 [Example 3, (R)-8-cyclopentyl-7-ethyl-2-(1H-imidazol-1-yl)-5-methyl-7,8-dihydropteridin-6(5H)-one]
- IC50 (GST-PLK1): < 1 µM
- IC50 (GST-PLK2): < 1 µM
- IC50 (GST-PLK3): 10 to 50 µM

Structure (SMILES): CC[C@@H]1C(=O)N(C)c2cnc(-c3cnoc3-c3ccccc3)nc2N1C1CCCC1 [Example 133, (R)-8-cyclopentyl-7-ethyl-5-methyl-2-(5-phenylisoxazol-4-yl)-7,8-dihydropteridin-6(5H)-one]
- IC50 (GST-PLK1): < 1 µM
- IC50 (GST-PLK2): < 1 µM
- IC50 (GST-PLK3): < 1 µM

Structure (SMILES): CC[C@@]12COCCN1c1nc(-c3snnc3-c3ccccc3)ncc1N(C)C2=O [Example 368, (S)-6a-ethyl-5-methyl-2-(4-phenyl-1,2,3-thiadiazol-5-yl)-6a,7,9,10-tetrahydro-[1,4]oxazino[3,4-h]pteridin-6(5H)-one]
- IC50 (GST-PLK1): > 50 µM
- IC50 (GST-PLK2): < 1 µM
- PLK2 activity relative to the opposite enantiomer / other isomer (GST-PLK2): more active compound
- IC50 (GST-PLK3): 1 to 10 µM

Structure (SMILES): CC[C@@]12COCCN1c1nc(-c3ccncc3-c3ccccc3)ncc1N(C)C2=O [Example 394, (S)-6a-ethyl-5-methyl-2-(3-phenylpyridin-4-yl)-6a,7,9,10-tetrahydro-[1,4]oxazino[3,4-h]pteridin-6(5H)-one]
- IC50 (GST-PLK1): 1 to 10 µM
- IC50 (GST-PLK2): < 1 µM
- PLK2 activity relative to the opposite enantiomer / other isomer (GST-PLK2): more active compound
- IC50 (GST-PLK3): 1 to 10 µM

Structure (SMILES): CC[C@@H]1C(=O)N(C)c2cnc(-c3scnc3-c3ccc(F)cc3)nc2N1C(C)C [Example 319, (R)-7-ethyl-2-(4-(4-fluorophenyl)thiazol-5-yl)-8-isopropyl-5-methyl-7,8-dihydropteridin-6(5H)-one]
- IC50 (GST-PLK1): 1 to 10 µM
- IC50 (GST-PLK2): < 1 µM
- IC50 (GST-PLK3): 1 to 10 µM

Structure (SMILES): CC[C@@H]1C(=O)N(C)c2cnc(-n3ccnc3-c3ccc(S(C)(=O)=O)cc3)nc2N1C1CCCC1 [Example 79, (R)-8-cyclopentyl-7-ethyl-5-methyl-2-(2-(4-(methylsulfonyl)phenyl)-1H-imidazol-1-yl)-7,8-dihydropteridin-6(5H)-one]
- IC50 (GST-PLK1): 1 to 10 µM
- IC50 (GST-PLK2): < 1 µM
- IC50 (GST-PLK3): 10 to 50 µM

Structure (SMILES): CC[C@H]1C(=O)N(C)c2cnc(-n3ccnc3-c3ccc(F)cc3)nc2N1c1ccn(C)n1 [Example 408, (S)-7-ethyl-2-(2-(4-fluorophenyl)-1H-imidazol-1-yl)-5-methyl-8-(1-methyl-1H-pyrazol-3-yl)-7,8-dihydropteridin-6(5H)-one]
- IC50 (GST-PLK1): > 50 µM
- IC50 (GST-PLK2): 1 to 10 µM
- IC50 (GST-PLK3): > 50 µM

Structure (SMILES): CC[C@@H]1C(=O)N(C)c2cnc(-n3cc(C(=O)N4CCOCC4)cn3)nc2N1C1CCCC1 [Example 41, (R)-8-cyclopentyl-7-ethyl-5-methyl-2-(4-(morpholine-4-carbonyl)-1H-pyrazol-1-yl)-7,8-dihydropteridin-6(5H)-one]
- IC50 (GST-PLK1): 1 to 10 µM
- IC50 (GST-PLK2): 1 to 10 µM
- IC50 (GST-PLK3): 10 to 50 µM

Structure (SMILES): CC[C@]12COCCN1c1nc(-c3cn[nH]c3-c3nccs3)ncc1N(C)C2=O [Example 345, (R)-6a-ethyl-5-methyl-2-(5-(thiazol-2-yl)-1H-pyrazol-4-yl)-6a,7,9,10-tetrahydro-[1,4]oxazino[3,4-h]pteridin-6(5H)-one]
- IC50 (GST-PLK1): > 50 µM
- IC50 (GST-PLK2): 10 to 50 µM
- IC50 (GST-PLK3): > 50 µM

Structure (SMILES): CC[C@@H]1C(=O)N(C)c2cnc(-n3ccc(C(=O)N(C)C)n3)nc2N1C1CCCC1 [Example 61, (R)-1-(8-cyclopentyl-7-ethyl-5-methyl-6-oxo-5,6,7,8-tetrahydropteridin-2-yl)-N,N-dimethyl-1H-pyrazole-3-carboxamide]
- IC50 (GST-PLK1): 1 to 10 µM
- IC50 (GST-PLK2): 1 to 10 µM
- IC50 (GST-PLK3): 1 to 10 µM

Structure (SMILES): CC[C@@H]1C(=O)N(C)c2cnc(-n3nccc3-c3ccccc3)nc2N1C(C)C [Example 188, (R)-7-ethyl-8-isopropyl-5-methyl-2-(5-phenyl-1H-pyrazol-1-yl)-7,8-dihydropteridin-6(5H)-one]
- IC50 (GST-PLK1): < 1 µM
- IC50 (GST-PLK2): < 1 µM
- IC50 (GST-PLK3): 1 to 10 µM

Structure (SMILES): CC[C@@H]1C(=O)N(C)c2cnc(-n3cnc(CC#N)c3)nc2N1C1CCCC1 [Example 35, (R)-2-(1-(8-cyclopentyl-7-ethyl-5-methyl-6-oxo-5,6,7,8-tetrahydropteridin-2-yl)-1H-imidazol-4-yl)acetonitrile]
- IC50 (GST-PLK1): 1 to 10 µM
- IC50 (GST-PLK2): < 1 µM
- IC50 (GST-PLK3): 10 to 50 µM

Structure (SMILES): CC[C@@H]1C(=O)N(C)c2cnc(-n3ccnc3-c3cncnc3)nc2N1C(C)C [Example 149, (R)-7-ethyl-8-isopropyl-5-methyl-2-(2-(pyrimidin-5-yl)-1H-imidazol-1-yl)-7,8-dihydropteridin-6(5H)-one]
- IC50 (GST-PLK1): 10 to 50 µM
- IC50 (GST-PLK2): < 1 µM
- IC50 (GST-PLK3): 10 to 50 µM

Structure (SMILES): CC[C@@H]1C(=O)N(C)c2cnc(-n3ccnc3-c3cncnc3)nc2N1C1CCCC1 [Example 159, (R)-8-cyclopentyl-7-ethyl-5-methyl-2-(2-(pyrimidin-5-yl)-1H-imidazol-1-yl)-7,8-dihydropteridin-6(5H)-one]
- IC50 (GST-PLK1): < 1 µM
- IC50 (GST-PLK2): < 1 µM
- IC50 (GST-PLK3): 1 to 10 µM

Structure (SMILES): CC[C@@H]1C(=O)N(C)c2cnc(-n3ccnc3-c3ccc(F)cc3)nc2N1c1ccn(C)n1 [Example 407, (R)-7-ethyl-2-(2-(4-fluorophenyl)-1H-imidazol-1-yl)-5-methyl-8-(1-methyl-1H-pyrazol-3-yl)-7,8-dihydropteridin-6(5H)-one]
- IC50 (GST-PLK1): 1 to 10 µM
- IC50 (GST-PLK2): < 1 µM
- PLK2 activity relative to the opposite enantiomer / other isomer (GST-PLK2): more active compound
- IC50 (GST-PLK3): 1 to 10 µM

Structure (SMILES): CC[C@@H]1C(=O)N(C)c2cnc(-n3cnc(C(=O)O)c3)nc2N1C1CCCC1 [Example 37, (R)-1-(8-cyclopentyl-7-ethyl-5-methyl-6-oxo-5,6,7,8-tetrahydropteridin-2-yl)-1H-imidazole-4-carboxylic acid]
- IC50 (GST-PLK1): < 1 µM
- IC50 (GST-PLK2): < 1 µM
- IC50 (GST-PLK3): < 1 µM

Structure (SMILES): CN1C(=O)[C@]2(C)CCCN2c2nc(-n3ccnc3-c3ccccc3)ncc21 [Example 80, (S)-5,6a-dimethyl-2-(2-phenyl-1H-imidazol-1-yl)-6a,7,8,9-tetrahydropyrrolo[2,1-h]pteridin-6(5H)-one]
- IC50 (GST-PLK1): 10 to 50 µM
- IC50 (GST-PLK2): < 1 µM
- IC50 (GST-PLK3): 10 to 50 µM

Structure (SMILES): CC[C@@H]1C(=O)N(C)c2cnc(-n3cnc(C)c3)nc2N1C1CCCC1 [Example 55, (R)-8-cyclopentyl-7-ethyl-5-methyl-2-(4-methyl-1H-imidazol-1-yl)-7,8-dihydropteridin-6(5H)-one]
- IC50 (GST-PLK1): < 1 µM
- IC50 (GST-PLK2): < 1 µM
- IC50 (GST-PLK3): 10 to 50 µM
